Patent publication US7915022B2, “Carbonyl reductase, gene thereof and method of using the same” (priority 2004, dated 2011)

Assays:
[1] = system: polypeptide consisting of the amino acid sequence shown in SEQ ID NO: 3 (carbonyl reductase), cell-free extract of E. coli HB101 (pNTOM3); experiment: Substrate specificity of polypeptide produced by transformant E. coli HB101 (pNTOM3); assay type: biochemical, Ogataea minuta var. minuta NBRC0975; settings: 1 mM substrate, 0.25 mM NADPH, pH 6.5, 30° C., 1 min; relative to activity on CBPB as 100%
Procedure: (§1) In 100 mM phosphate buffer (pH 6.5) containing 0.33% (v/v) dimethyl sulfoxide were dissolved a carbonyl compound to be a substrate to a final concentration of 1 mM, and a coenzyme NADPH to a final concentration of 0.25 mM, respectively. Thereto was added a cell-free extract of E. coli HB101 (pNTOM4) or E. coli HB101 (pNTOM3) prepared in Example 7, and the mixture was reacted at 30° C. for 1 min. The reduction activity on each carbonyl compound was calculated from the rate of decrease in the absorbance of the reaction mixture at a wavelength of 340 nm, and shown in Table 2 as a value relative to the activity on (3S)-1-chloro-3-tert-butoxycarbonylamino-4-phenyl-2-butanone as 100%.

[2] = system: polypeptide consisting of the amino acid sequence shown in SEQ ID NO: 4 (carbonyl reductase), cell-free extract of E. coli HB101 (pNTOM4); experiment: Substrate specificity of polypeptide produced by transformant E. coli HB101 (pNTOM4); assay type: biochemical, Ogataea minuta var. minuta NBRC0975; settings: 1 mM substrate, 0.25 mM NADPH, pH 6.5, 30° C., 1 min; relative to activity on CBPB as 100%
Procedure: as §1

| Compound | relative activity (%) E. coli HB101 (pNTOM3) [1] | relative activity (%) E. coli HB101 (pNTOM4) [2] |
| --- | --- | --- |
| O=CCCCC=O [glutaraldehyde] | 80% | 1% |
| CC(C)=O [acetone] | 47% | 0% |
| O=C(CO)c1ccccc1 [2-hydroxyacetophenone] | 32% | 1% |
| O=Cc1ccccn1 [2-pyridinecarbaldehyde] | 56% | 1% |
| COC(=O)CC(C)=O [methyl acetoacetate] | 8% | 0% |
| O=Cc1ccccc1Cl [o-chlorobenzaldehyde] | 269% | 17% |
| CC(=O)c1ccc(C)cc1 [4′-methylacetophenone] | 41% | 1% |
| CC(=O)CC(=O)OC(C)(C)C [tert-butyl acetoacetate] | 1330% | 2% |
| CCC(=O)c1ccccc1 [propiophenone] | 183% | 2% |
| CCCC=O [n-butylaldehyde] | 168% | 0% |
| COC(=O)C(C)=O [methyl pyruvate] | 674% | 5% |
| O=C(CCl)c1cccc(Cl)c1 [2-chloro-1-(3′-chlorophenyl)ethanone] | 1301% | 33% |
| CC(=O)c1cnccn1 [acetylpyrazine] | 185% | 0% |
| CC(=O)CC(C)=O [acetylacetone] | 23% | 0% |
| CCOC(=O)C1CCC(=O)C1 (stereo not drawn) [ethyl 3-oxocyclopentanecarboxylate] | 484% | 12% |
| O=C1CCCC1 [cyclopentanone] | 8% | 0% |
| O=Cc1ccccc1 [benzaldehyde] | 81% | 1% |
| CCOC(=O)C(C)C(C)=O (stereo not drawn) [ethyl 2-methylacetoacetate] | 619% | 4% |
| CCOC(=O)CC(=O)CCl [ethyl 4-chloroacetoacetate] | 4547% | 22% |
| O=C1CCCc2ccccc21 [1-tetoralone] | 146% | 1% |
| O=Cc1cccc(Cl)c1 [m-chlorobenzaldehyde] | 344% | 17% |
| O=CCCc1ccccc1 [3-phenylpropionaldehyde] | 2410% | 7% |
| O=Cc1ccccc1[N+](=O)[O-] [o-nitrobenzaldehyde] | 1621% | 89% |
| CC(C)(C)OC(=O)N[C@@H](Cc1ccccc1)C(=O)CCl [CBPB, (3S)-1-chloro-3-tert-butoxycarbonylamino-4-phenyl-2-butanone] | 100% | 100% |
| CCC(C)=O [2-butanone] | 22% | 0% |
| CC(=O)c1ccc(Cl)cc1 [4′-chloroacetophenone] | 35% | 9% |

| Compound | relative activity (%) E. coli HB101 (pNTOM3) [1] | relative activity (%) E. coli HB101 (pNTOM4) [2] |
| --- | --- | --- |
| CCCCCCCCOC(=O)CC(=O)CCl [n-octyl 4-chloroacetoacetate] | 466% | 24% |
| CC(=O)c1ccncc1 [4-acetylpyridine] | 98% | 0% |
| CCOC(=O)CC(=O)CN=[N+]=[N-] [ethyl 4-azideacetoacetate] | 659% | 1% |
| CC(=O)C(C)=O [diacetyl] | 444% | 5% |
| COc1ccc(C(C)=O)cc1OC [3′,4′-dimethoxyacetophenone] | 51% | 4% |
| CC(=O)CCc1ccccc1 [benzylacetone] | 66% | 0% |
| CCCCCC(C)=O [2-heptanone] | 102% | 0% |
| CCOC(=O)CC(C)=O [ethyl acetoacetate] | 137% | 0% |
| CCOC(=O)CC(=O)COCc1ccccc1 [ethyl 4-benzyloxyacetoacetate] | 1259% | 8% |
| CC(=O)c1cccc([N+](=O)[O-])c1 [3′-nitroacetophenone] | 273% | 31% |
| CC(=O)c1ccc(F)cc1 [4′-fluoroacetophenone] | 28% | 1% |
| O=Cc1ccc(Cl)cc1 [p-chlorobenzaldehyde] | 91% | 12% |
| CC(=O)c1cccnc1 [3-acetylpyridine] | 15% | 0% |
| CC(=O)c1ccccn1 [2-acetylpyridine] | 29% | 0% |
| CC(=O)c1ccccc1 [acetophenone] | 215% | 0% |
| C=CC(C(C)=O)C(=O)OCC (stereo not drawn) [ethyl 2-eteneacetoacetate] | 2013% | 10% |
| CCCCCCCCC(=O)C(=O)OCC [ethyl 2-oxodecanoate] | 985% | 5% |
| O=Cc1cccc([N+](=O)[O-])c1 [m-nitrobenzaldehyde] | 851% | 29% |
| O=Cc1ccncc1 [pyridine-4-aldehyde] | 571% | 2% |
| CC(=O)c1cccc(O)c1 [3′-hydroxyacetophenone] | 33% | 0% |
| O=C(c1ccccc1)C(O)c1ccccc1 (stereo not drawn) [benzoin] | 4018% | 5% |
| CCOC(=O)C(C)=O [ethyl pyruvate] | 1067% | 23% |
| CCC=O [propionaldehyde] | 99% | 0% |
| CCCCCCC(C)=O [2-octanone] | 808% | 3% |
| CCOC(=O)CC(=O)CBr [ethyl 4-bromoacetoacetate] | 476% | 7% |
